Some test systems named below: 786-0; A549; BT-549; CCRF-CEM; DU-145; EKVX; HOP-62; LOX IMVI; MCF7; MDA-N; MOLT-4; NCI/ADR-RES; SF-268; SF-295; SK-MEL-28; SK-OV-3; SN12C; SR; SW-620; TK-10.
Assay in all cases: growth of human tumour cells (NCI), 48 h

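Where inhibition never reached the appropriate level, the endpoint shown equals the highest concentration tested. Otherwise, values were interpolated linearly from a five-concentration, 48-hour dose response in 96-well plates. GI50 is the concentration that inhibits growth by half.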 The source made the active and inactive calls. Cut-off read from the data, not from the text of the source: active = GI50 up to about 1.1 µM and inactive = higher.

Consider `COC(=O)C1=CON2C3CC4CC(C3)CC(C4)C12C` (stereo not given), for which the GI50 in the test on 786-0, in the test on A549, in the test on BT-549, in the test with CCRF-CEM, in the test on DU-145 and with EKVX was > 100 µM (inactive) throughout. Further, the GI50 with HOP-62, in the test with LOX IMVI, in the test with MCF7, with MDA-N, with MOLT-4 and in the test with NCI/ADR-RES was > 100 µM (inactive) throughout. Also, the GI50 with SF-268, with SF-295, with SK-MEL-28, with SK-OV-3, in the test on SN12C and with SR was > 100 µM (inactive) each time. In addition, the GI50 in the test on SW-620 and in the test with TK-10 was > 100 µM (inactive) in each case.
Turning to `N#Cc1c(C#N)c(-c2ccco2)n(-c2ccccc2)c1N`, the GI50 was 83.4 µM (inactive) in the test on 786-0; 59.2 µM (inactive) with A549; 40.1 µM (inactive) in the test on BT-549; > 100 µM (inactive) in the test with CCRF-CEM; > 100 µM (inactive) in the test on DU-145; 45 µM (inactive) with EKVX. The GI50 in the test with HOP-62 is > 100 µM (inactive); with LOX IMVI, > 100 µM (inactive); in the test on MCF7, 5.94 µM (inactive); in the test on MDA-N, > 100 µM (inactive); with MOLT-4 it was > 100 µM (inactive); in the test with NCI/ADR-RES, 31.8 µM (inactive). For the same molecule, the GI50 in the test with SF-268 is 51.9 µM (inactive); in the test on SF-295, > 100 µM (inactive); in the test with SK-OV-3 it was 94.4 µM (inactive); in the test with SN12C, > 100 µM (inactive); in the test on SR it was 98.2 µM (inactive); in the test with SW-620, > 100 µM (inactive). For the same molecule, the GI50 with TK-10 was > 100 µM (inactive).
Take `O=C(/C=C/c1ccc(O)c(O)c1)c1cc(O)cc(O)c1`: the GI50 is 13.7 µM (inactive) in the test on 786-0; > 100 µM (inactive) in the test with A549; 8.69 µM (inactive) with BT-549; 2 µM (inactive) in the test with CCRF-CEM; 18.1 µM (inactive) with DU-145; 20.6 µM (inactive) in the test with EKVX. Moreover, the GI50 was 21.4 µM (inactive) in the test on HOP-62; 5.42 µM (inactive) with LOX IMVI; 3.55 µM (inactive) in the test on MCF7; 6 µM (inactive) in the test with MDA-N; 4.91 µM (inactive) in the test on MOLT-4; 16.1 µM (inactive) in the test with NCI/ADR-RES. The GI50 is 9.79 µM (inactive) in the test on SF-268; 19.7 µM (inactive) in the test with SF-295; 16.4 µM (inactive) with SK-MEL-28; 13.9 µM (inactive) in the test with SK-OV-3; 13 µM (inactive) in the test with SN12C; 5.24 µM (inactive) in the test with SR. For the same molecule, in the test on TK-10, the GI50 was 15.3 µM (inactive).
`C=CCN1C(=O)/C(=C/c2cccs2)N=C1SC/C=C/C`: the GI50 with 786-0 was 36.8 µM (inactive); in the test with A549, 40.7 µM (inactive); with BT-549, 39.1 µM (inactive); in the test on CCRF-CEM it was 34.8 µM (inactive); in the test with DU-145, 63.1 µM (inactive); in the test with EKVX it was 33.6 µM (inactive). Also, the GI50 is > 100 µM (inactive) in the test with HOP-62; 36.1 µM (inactive) with LOX IMVI; 26.4 µM (inactive) with MCF7; 24.7 µM (inactive) with MDA-N; 14.7 µM (inactive) in the test on MOLT-4; 39.1 µM (inactive) in the test with NCI/ADR-RES. The GI50 in the test with SF-268 is 46.5 µM (inactive); in the test on SF-295 it was 40.4 µM (inactive); in the test on SK-MEL-28, 54.1 µM (inactive); in the test on SK-OV-3, 95.3 µM (inactive); with SN12C it was 26.3 µM (inactive); in the test on SR, 18.5 µM (inactive). The GI50 in the test with SW-620 was 35.6 µM (inactive); in the test on TK-10, 92 µM (inactive).
For `CCOC(=O)C(NCc1cccc(C(F)(F)F)c1)(NC(=O)c1ccccc1)C(F)(F)F` (stereo not given), the GI50 is 28.5 µM (inactive) in the test with 786-0; 22.9 µM (inactive) in the test with A549; 20.5 µM (inactive) in the test with BT-549; > 100 µM (inactive) with CCRF-CEM; 46.5 µM (inactive) with DU-145; 24.2 µM (inactive) in the test with EKVX. The GI50 with HOP-62 is 37.9 µM (inactive); in the test on LOX IMVI, 19.9 µM (inactive); in the test on MCF7, 43.3 µM (inactive); with MDA-N, 34 µM (inactive); with MOLT-4, 26.1 µM (inactive); in the test with NCI/ADR-RES, 18.8 µM (inactive). The GI50 with SF-268 was 47.9 µM (inactive); in the test with SF-295, 44.1 µM (inactive); in the test on SK-MEL-28 it was 22.1 µM (inactive); with SK-OV-3 it was 78.3 µM (inactive); with SN12C, 31.2 µM (inactive); in the test with SR, > 100 µM (inactive). Moreover, the GI50 with SW-620 was 28.1 µM (inactive); with TK-10 it was 30.1 µM (inactive).
Regarding `C[C@H]1[C@H]2[C@H](C[C@@]3(C)C4=CC[C@H]5C(C)(C)[C@@H](OC6OCC(O)C(O)C6O)CC[C@@]56C[C@@]46CC[C@]23C)O[C@@]2(O)[C@@H]1OC(C)(C)[C@H]2O` (stereo not given in full), the GI50 in the test on 786-0 was 1.06 µM (active); in the test on A549, 1.4 µM (inactive); in the test on BT-549, 1.86 µM (inactive); in the test on CCRF-CEM it was 0.791 µM (active); in the test on DU-145, 1.02 µM (active); in the test with EKVX, 1.12 µM (inactive). Further, the GI50 in the test with HOP-62 is 1.78 µM (inactive); in the test with LOX IMVI it was 1.48 µM (inactive); with MCF7 it was 0.867 µM (active); in the test on MDA-N, 2.28 µM (inactive); in the test with MOLT-4 it was 3.96 µM (inactive); in the test on NCI/ADR-RES, 2.67 µM (inactive). The GI50 in the test on SF-268 is 0.914 µM (active); in the test with SF-295, 0.429 µM (active); in the test with SK-MEL-28 it was 2.48 µM (inactive); with SK-OV-3, 1.74 µM (inactive); in the test on SN12C, 1.06 µM (active); with SR it was 1.54 µM (inactive). For the same molecule, the GI50 in the test on SW-620 is 1.13 µM (inactive); with TK-10 it was 1.17 µM (inactive).
In the case of `CC(OP(=O)(O)O)C(N)C(=O)O` (stereo not given), the GI50 in the test on 786-0, in the test on A549, with BT-549, in the test on CCRF-CEM, in the test on DU-145 and in the test with EKVX was > 100 µM (inactive) in each case. Further, the GI50 in the test with HOP-62, in the test on LOX IMVI, in the test with MCF7, with MDA-N, in the test on MOLT-4 and in the test with NCI/ADR-RES was > 100 µM (inactive) in each case. Besides, the GI50 in the test with SF-268, in the test on SF-295, with SK-MEL-28, in the test with SK-OV-3, in the test with SN12C and in the test on SR was > 100 µM (inactive) in each case. The GI50 with SW-620 and with TK-10 was > 100 µM (inactive) in each case.
Turning to `CC(C)C12CCC3(CCC4C(C)(C(=O)O)CCCC4(C)C3C1)C(CN)C2` (stereo not given), the GI50 was 20.2 µM (inactive) with 786-0; 30.1 µM (inactive) with A549; 38.5 µM (inactive) in the test on BT-549; 0.388 µM (active) in the test on CCRF-CEM; 38.6 µM (inactive) with DU-145; 32.2 µM (inactive) with EKVX. For the same molecule, the GI50 in the test with HOP-62 was 74.6 µM (inactive); in the test on LOX IMVI, 18.7 µM (inactive); in the test on MCF7 it was 29.5 µM (inactive); with MDA-N, 28.4 µM (inactive); in the test on NCI/ADR-RES, 37.6 µM (inactive); with SF-268 it was 54.8 µM (inactive). Moreover, the GI50 with SF-295 is 51.2 µM (inactive); in the test on SK-MEL-28, 39.7 µM (inactive); in the test with SK-OV-3, > 100 µM (inactive); in the test with SN12C, 20.8 µM (inactive); in the test with SR it was 25.9 µM (inactive); with SW-620, 35.4 µM (inactive). Also, the GI50 in the test with TK-10 was 37.7 µM (inactive).
With `CCCNCC(O)CNc1ccc(NCC(O)CNCCC)c2c1C(=O)c1ccccc1C2=O` (stereo not given), the GI50 was 2.03 µM (inactive) in the test with 786-0; 1.81 µM (inactive) with A549; 2.14 µM (inactive) in the test on BT-549; 0.998 µM (active) in the test with CCRF-CEM; 6.22 µM (inactive) in the test on DU-145; 7.73 µM (inactive) with EKVX. Besides, the GI50 with HOP-62 is 1.82 µM (inactive); in the test with LOX IMVI it was 1.44 µM (inactive); with MCF7, 2.54 µM (inactive); with MDA-N, 2.74 µM (inactive); in the test with MOLT-4 it was 1.26 µM (inactive); in the test with NCI/ADR-RES it was > 75 µM (inactive). The GI50 in the test on SF-268 was 2.03 µM (inactive); in the test on SK-MEL-28, 2.96 µM (inactive); in the test on SK-OV-3, 2.04 µM (inactive); with SN12C, 1.78 µM (inactive); in the test with SR, 2.42 µM (inactive); with SW-620, 2.05 µM (inactive). Besides, the GI50 in the test on TK-10 is 10.6 µM (inactive).
Consider `Cc1cc(O)c(C(c2ccncc2)c2c(O)cc(C)[nH]c2=O)c(=O)[nH]1`, for which the GI50 with 786-0, with A549, in the test with BT-549, in the test on CCRF-CEM, with DU-145 and in the test on EKVX was > 100 µM (inactive) each time. The GI50 in the test on HOP-62, in the test on LOX IMVI, with MCF7, with MDA-N, in the test on MOLT-4 and in the test with NCI/ADR-RES was > 100 µM (inactive) throughout. Also, the GI50 with SF-268, in the test on SF-295, with SK-MEL-28, with SK-OV-3, in the test on SN12C and in the test on SR was > 100 µM (inactive) each time. In the test with TK-10, the GI50 was > 100 µM (inactive).

The record behind these values is ChEMBL document CHEMBL1201862, “PubChem BioAssay data set” (2004).
